Measurements taken from patent US11427548B2 (Arvinas Operations, Inc., priority 2015, dated 2022).
Like-named read-outs stand apart in the source and are kept apart here. Blank lines part the entries; values can stand above or below the compound they belong to.

Molecular target: T1, Androgen Receptor (Homo sapiens, UniProt P10275)
T1 construct: endogenous in cells; host or cells: VCaP cells
T1 sequence (P10275 1-920): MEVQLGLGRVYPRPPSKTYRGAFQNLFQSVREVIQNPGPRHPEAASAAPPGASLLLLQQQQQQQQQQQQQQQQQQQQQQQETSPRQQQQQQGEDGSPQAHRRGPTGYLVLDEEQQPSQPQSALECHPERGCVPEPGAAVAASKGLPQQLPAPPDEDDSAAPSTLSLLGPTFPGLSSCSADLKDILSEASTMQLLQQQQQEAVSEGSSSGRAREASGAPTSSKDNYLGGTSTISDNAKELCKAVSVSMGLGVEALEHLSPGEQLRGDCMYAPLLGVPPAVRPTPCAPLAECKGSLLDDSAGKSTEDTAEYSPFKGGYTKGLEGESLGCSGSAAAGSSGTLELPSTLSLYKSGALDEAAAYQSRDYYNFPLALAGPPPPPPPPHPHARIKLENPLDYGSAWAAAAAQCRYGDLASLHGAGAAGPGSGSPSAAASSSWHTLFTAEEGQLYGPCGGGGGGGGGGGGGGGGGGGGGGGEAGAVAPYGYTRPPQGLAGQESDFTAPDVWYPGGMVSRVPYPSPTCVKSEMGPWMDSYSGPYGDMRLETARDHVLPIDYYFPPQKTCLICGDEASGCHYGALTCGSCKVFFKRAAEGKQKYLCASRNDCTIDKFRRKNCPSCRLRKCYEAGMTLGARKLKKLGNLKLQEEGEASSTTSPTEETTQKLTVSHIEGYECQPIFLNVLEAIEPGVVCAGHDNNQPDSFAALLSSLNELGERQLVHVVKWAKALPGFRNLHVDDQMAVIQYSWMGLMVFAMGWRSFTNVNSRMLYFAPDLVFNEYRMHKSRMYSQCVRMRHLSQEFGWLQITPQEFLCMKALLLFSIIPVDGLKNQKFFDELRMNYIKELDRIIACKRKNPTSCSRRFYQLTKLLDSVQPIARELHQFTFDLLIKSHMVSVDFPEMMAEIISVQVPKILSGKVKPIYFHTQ
Assay: Androgen Receptor ELISA assay (PathScan AR ELISA) in VCaP cells: AR degradation, Dmax and DC50
Format: cell-based
Outline: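 After 24 h exposure of VCaP cells (charcoal-stripped serum, 0.1 nM R1881 agonist, 0.1% DMSO) to seven half-log compound concentrations, residual AR in lysates was measured by PathScan ELISA (TMB absorbance, 450 nm). Cells were plated at 30,000/well and grown at least 3 days beforehand.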

[1] = read-out: VCaP DC50; VCaP cells; Table 34
[2] = VCaP cells; Table 36; read-out: VCaP DC50
[3] = VCaP, VCaP cells; Table 36; read-out: VCaP Dmax (%)
[4] = VCaP cells; Table 35; read-out: VCaP DC50
[5] = VCaP, VCaP cells; Table 35; read-out: VCaP Dmax (%)
[6] = VCaP, highest percentage of Androgen Receptor degradation observed, VCaP cells (Table 32); read-out: VCaP Dmax (%)
[7] = concentration that caused 50% Androgen Receptor degradation, VCaP cells (Table 32); read-out: VCaP DC50

Compound: CCOC(=O)c1ncsc1-c1ccc(CNC(=O)[C@@H]2C[C@@H](O)CN2C(=O)[C@@H](NC(=O)COCCCCOc2ccc(-c3ccc(N4C(=S)N(c5ccc(C#N)c(C(F)(F)F)c5)C(=O)C4(C)C)cc3)cc2)C(C)(C)C)cc1 [Example 414]
Dmax (VCaP, read-out: VCaP Dmax (%)): < 25%
DC50 [1]: < 50 nM

DC50 [2]: > 501 nM
Dmax [3]: 26 to 50%
Compound: Cc1ncsc1-c1ccc([C@H](C)NC(=O)[C@@H]2C[C@@H](O)CN2C(=O)[C@H](C(C)C)N(C)C(=O)CN2CCN(CCOc3ccc(C(=O)N[C@H]4C(C)(C)[C@H](Oc5ccc(C#N)c(Cl)c5)C4(C)C)cc3)CC2)cc1 [Example 683, (2S,4R)-1-(N-(2-(4-(2-(4-(((1r,3r)-3-(3-chloro-4 cyanophenoxy)-2,2,4,4-tetramethylcyclobutyl)carbamoyl)phenoxy)eth-yl)piperazin-1-yl)acetayl)-N-methyl-L-valyl)-4-hydroxy-N-((S)-1-(4-(4-methylthiazol-5-yl)phenyl)ethyl)pyrrolidine-2-carboxamide]

DC50 [4]: < 50 nM
Dmax [5]: > 71%
Compound: C[C@H](NC(=O)[C@@H]1C[C@@H](O)CN1C(=O)[C@@H](NC(=O)COCCCCOc1ccc(C(=O)N[C@H]2C(C)(C)[C@H](Oc3ccc(C#N)c(Cl)c3)C2(C)C)cc1)C(C)(C)C)c1ccc(-c2nncs2)cc1 [Example 570]

DC50 [2]: > 501 nM
Dmax [3]: < 25%
Compound: CC(C)[C@@H](C(=O)N1C[C@H](O)C[C@H]1C(=O)NCc1ccc(C#N)cc1)N1Cc2ccc(N3CCN(CCCc4ccc(C(=O)N[C@H]5C(C)(C)[C@H](Oc6ccc(C#N)c(C(F)(F)F)c6)C5(C)C)cc4)CC3)cc2C1=O [Example 772, (2S,4R)-1-((S)-2-(6-(4-(3-(4-(((1r,3r)-3-(4-cyano-3-(trifluoromethyl)phenoxy)-2,2,4,4-tetramethylcyclobutyl)carbamoyl)phenyl)propyl)piperazin-1-yl)-1-oxoisoindolin-2-yl)-3-methylbutanoyl)-N-(4-cyanobenzyl)-4-hydroxypyrrolidine-2-carboxamide]

DC50 [2]: < 50 nM
Dmax [3]: > 71%
Compound: Cc1ncsc1-c1ccc([C@H](C)NC(=O)C2C[C@@H](O)CN2C(=O)C(NC(=O)CN2CCN(CCCCc3ccc(C(=O)N[C@H]4C(C)(C)[C@H](Oc5ccc(C#N)c(Cl)c5)C4(C)C)cc3)CC2)C(C)(C)C)cc1 (stereo partly drawn) [Example 806, (2S,4R)-1-((S)-2-(2-(4-(4-(4-(((1r,3r)-3-(3-chloro-4-cyanophenoxy)-2,2,4,4-tetramethylcyclobutyl)carbamoyl)phenyl)butyl)piperazin-1-yl)acetamido)-3,3-dimethylbutanoyl)-4-hydroxy-N-((S)-1-(4-(4-methylthiazol-5-yl)phenyl)ethyl)pyrrolidine-2-carboxamide]

Compound: CC(C)(C)[C@H](NC(=O)COCCCOCCCCOc1ccc(N2C(=S)N(c3ccc(C#N)c(C(F)(F)F)c3)C(=O)C2(C)C)cc1)C(=O)N1C[C@H](O)C[C@H]1C(=O)NCc1ccc(-c2cn[nH]c2)cc1 [Example 376]
Dmax (VCaP, read-out: VCaP Dmax (%)): 51 to 70%
DC50 [1]: < 50 nM

DC50 [4]: < 50 nM
Dmax [5]: > 71%
Compound: CC(C)(C)[C@H](NC(=O)COCCNc1ccc(-c2ccc(C(=O)N[C@H]3C(C)(C)[C@H](Oc4ccc(C#N)c(Cl)c4)C3(C)C)cc2)cn1)C(=O)N1C[C@H](O)C[C@H]1C(=O)NCc1ccc(C#N)cc1 [Example 540]

Compound: CC(C)(C)[C@H](NC(=O)COCCCOCCCCOc1ccc(N2C(=S)N(c3cc(Cl)c(C#N)cc3F)C(=O)C2(C)C)cc1F)C(=O)N1C[C@H](O)C[C@H]1C(=O)NCc1ccc(-c2cnco2)cc1 [Example 368]
DC50 [1]: < 50 nM

DC50 (VCaP cells; Table 34; read-out: VCaP DC50): < 50 nM
Dmax (VCaP, VCaP cells; Table 34; read-out: VCaP Dmax (%)): 51 to 70%
Compound: CC(C)(C)[C@H](NC(=O)COCCCCNc1ccc(C(=O)N[C@H]2C(C)(C)[C@H](Oc3ccc(C#N)c(Cl)c3)C2(C)C)cc1)C(=O)N1C[C@H](O)C[C@H]1C(=O)NCc1ccc(-c2scnc2C2CC2)cc1 [Example 412]

Compound: Cc1cc(C(C(=O)N2C[C@H](O)C[C@H]2C(=O)NCc2ccc(Cl)cc2OCCOCCOCCOc2ccc(N3C(=S)N(c4ccc(C#N)c(C(F)(F)F)c4)C(=O)C3(C)C)cc2)C(C)C)on1 (stereo partly drawn) [Example 735, (2S,4R)-N-(4-chloro-2-(2-(2-(2-(4-(3-(4-cyano-3-(trifluoromethyl)phenyl)-5,5-dimethyl-4-oxo-2-thioxoimidazolidin-1-yl)phenoxy)ethoxy)eth-oxy)ethoxy)benzyl)-4-hydroxy-1-(3-methyl-2-(3-methylisoxazol-5-yl)butanoyl)pyrrolidine-2-carboxamide]
Dmax (VCaP, read-out: VCaP Dmax (%)): < 25%
DC50 (read-out: VCaP DC50; VCaP cells; Table 36): > 501 nM

Compound: Cc1ncoc1-c1ccc(CNC(=O)[C@@H]2C[C@@H](O)CN2C(=O)[C@@H](NC(=O)COCCCCOc2ccc(C(=O)N[C@H]3C(C)(C)[C@H](Oc4ccc(C#N)c(Cl)c4)C3(C)C)cc2)C(C)(C)C)cc1 [Example 164, (2S,4R)-1-[(2S)-3,3-dimethyl-2-{2-[4-(4-{[trans-3-(3-chloro-4-cyanophenoxy)-2,2,4,4-tetramethylcyclobutyl]carbamoyl}phenoxy)butoxy]acetamido}butanoyl]-4-hydroxy-N-{[4-(4-methyl-1,3-oxazol-5-yl)phenyl]methyl}pyrrolidine-2-carboxamide]
Dmax [6]: > 71%
DC50 [7]: < 50 nM

Compound: Cc1ncsc1-c1ccc(CNC(=O)[C@@H]2C[C@@H](O)CN2C(=O)[C@@H](NC(=O)COCCCOCCCCOc2ccc(N3C(=S)N(c4ccc(C#N)c(C(F)(F)F)c4)C(=O)C34CCOCC4)cc2)C(C)(C)C)cc1 [Example 43, (2S,4R)-1-[(2S)-2-(2-{3-[4-(4-{3-[4-cyano-3-(trifluoromethyl)phenyl]-4-oxo-2-sulfanylidene-8-oxa-1,3-diazaspiro[4.5]decan-1-yl}phenoxy)butoxy]propoxy}acetamido)-3,3-dimethylbutanoyl]-4-hydroxy-N-{[4-(4-methyl-1,3-thiazol-5-yl)phenyl]methyl}pyrrolidine-2-carboxamide]
Dmax (VCaP, read-out: VCaP Dmax (%)): 51 to 70%
DC50 (read-out: VCaP DC50; concentration that caused 50% Androgen Receptor degradation, VCaP cells): < 50 nM

Dmax [6]: > 71%
DC50 [7]: < 50 nM
Compound: Cc1ncoc1-c1ccc(CNC(=O)[C@@H]2C[C@@H](O)CN2C(=O)[C@@H](NC(=O)COCCOc2ccc(-c3ccc(C(=O)N[C@H]4C(C)(C)[C@H](Oc5ccc(C#N)c(Cl)c5)C4(C)C)cc3)cc2)C(C)(C)C)cc1 [Example 181]

Compound: Cc1ncsc1-c1ccc(CNC(=O)[C@@H]2C[C@@H](O)CN2C(=O)[C@@H](NC(=O)COCCCOCCCCCOc2ccc(N3C(=S)N(c4ccc(C#N)c(C(F)(F)F)c4)C(=O)C3(C)C)cc2)C(C)(C)C)nc1 [Example 453]
Dmax (VCaP, read-out: VCaP Dmax (%)): < 25%
DC50 (read-out: VCaP DC50; VCaP cells; Table 35): > 501 nM

DC50 [2]: < 50 nM
Dmax [3]: > 71%
Compound: Cc1ncsc1-c1ccc([C@H](C)NC(=O)[C@@H]2C[C@@H](O)CN2C(=O)[C@@H](NC(=O)CN2CCN(C3CN(c4ccc(C(=O)N[C@H]5C(C)(C)[C@H](Oc6ccc(C#N)c(Cl)c6)C5(C)C)cn4)C3)CC2)C(C)(C)C)cc1 [Example 795, N-((1r,3r)-3-(3-chloro-4-cyanophenoxy)-2,2,4,4-tetramethylcyclobutyl)-6-(3-(4-(2-(((S)-1-((2S,4R)-4-hydroxy-2-(((S)-1-(4-(4-methylthiazol-5-yl)phenyl)ethyl)carbamoyl)pyrrolidin-1-yl)-3,3-dimethyl-1-oxobutan-2-yl)amino)-2-oxoethyl)piperazin-1-yl)azetidin-1-yl)nicotinamide]

Compound: Cc1ncsc1-c1ccc(CNC(=O)[C@@H]2C[C@@H](O)CN2C(=O)[C@@H](NC(=O)COCCCOCCCCOc2ccc(N3C(=S)N(c4cnc(C#N)c(Cl)c4)C(=O)C3(C)C)cc2)C(C)(C)C)cc1 [Example 37, (2S,4R)-1-[(2S)-2-{2-[3-(4-{4-[3-(5-chloro-6-cyanopyridin-3-yl)-5,5-dimethyl-4-oxo-2-sulfanylideneimidazolidin-1-yl]phenoxy}butoxy)propoxy]acetamido}-3,3-dimethylbutanoyl]-4-hydroxy-N-{[4-(4-methyl-1,3-thiazol-5-yl)phenyl]methyl}pyrrolidine-2-carboxamide]
Dmax (VCaP, highest percentage of Androgen Receptor degradation observed, VCaP cells; read-out: VCaP Dmax (%)): > 71%
DC50 (concentration that caused 50% Androgen Receptor degradation, VCaP cells; read-out: VCaP DC50): < 50 nM

DC50 [4]: < 50 nM
Dmax [5]: > 71%
Compound: Cc1ncsc1-c1ccc([C@H](CN2CCCC2)NC(=O)[C@@H]2C[C@@H](O)CN2C(=O)[C@@H](NC(=O)COCCCCCOc2ccc(C(=O)N[C@H]3C(C)(C)[C@H](Oc4ccc(C#N)c(Cl)c4)C3(C)C)cc2)C(C)(C)C)cc1 [Example 465]
